In ChEMBL document CHEMBL1154585, “Lorneamides A and B: two new aromatic amides from a southern Australian marine actinomycete” (2000):

Tested on: Bacillus subtilis
Assay: Antibacterial activity against Bacillus subtilis
Type: functional

## CCCC(O)/C=C/c1cc(C)ccc1/C=C/CC(N)=O (stereo unspecified) [LORNEAMIDE A]
  LD99: 50 µg/mL
